Several values for one entry are separate records, joined by “and”; a condition that tells them apart may be missing. Equal values may be shown once.

Data set [1] in a line: Leucine bioavailability (plasma leucine from dry blood spots) in aged mice. Format: in vivo. On the procedure: Aged mice (animal model: see example 1) were fed with one of the 4 supplements at TO and after 10 minutes a droplet of blood from the tail was collected and stamped on a card. […] The results are plotted in FIG. 2A. Since feces was not collected, it was not possible to precisely calculate the N in- and output. […] Summarized, the amount of leucine present in the intact protein was known from the analyses of the pure protein sources (data sheets available). […] Since fasted mice also show a baseline level of plasma leucine, these values were then deducted from the obtained leucine plasma values (column D in table below). […] It was then calculated the contribution of the increase from the intact Leu (column E) and from the added free leucine (column F).

Data set [2] deals with Muscle Protein Synthesis (MPS). To be noted: same experimental protocol, earlier work; cited from earlier work.

Regarding `CC(C)C[C@H](N)C(=O)O` [free leucine, L-leucine], the “bioavailability factor of leucine (rise of plasma leucine per mg of leucine consumed)” value in data set [1] is 17.4 mmol/L/mg and 17.3 mmol/L/mg. For the same compound, the “anabolic (MPS) response in aged mice, Dijk (2018)” value in data set [2] is given as “did not show an anabolic response”.

These data come from US20240269215A1, “NUTRITIONAL COMPOSITION FOR MUSCLE MASS, STRENGTH AND FUNCTION” (N.V. Nutricia, priority 2021, published 2024).
